A word on the MIC: it is the least concentration at which growth counts as inhibited. Read a high MIC as a need for much substance.

≈ marks a conversion by molar mass, not a printed value. Bounds are passed on as bounds.

Common to all, as to type: functional
The test system of one experiment is Proteus vulgaris. As to the kind of experiment: Antibacterial activity against Proteus vulgaris ATCC 13315 after 20 to 22 hr by agar dilution method.
Experiment [1] concerns Bordetella bronchiseptica. The experiment is described as follows: Antibacterial activity against Bordetella bronchiseptica ATCC 4617 after 20 to 22 hr by agar dilution method.
The next experiment relates to Micrococcus. As to the kind of experiment: Antibacterial activity against Micrococcus […] ATCC 9341 after 20 to 22 hr by agar dilution method. A general note: In agar dilution, organisms are placed on agar that contains the substance at set levels.
In experiment [2] the test system is Staphylococcus epidermidis. As to the kind of experiment: Antibacterial activity against Staphylococcus epidermidis ATCC 12228 after 20 to 22 hr by agar dilution method.
The subject of another experiment is Staphylococcus aureus. As to the kind of experiment: Antibacterial activity against Staphylococcus aureus ATCC 25923 after 20 to 22 hr by agar dilution method.
The test system of another experiment is Bacillus cereus. The experiment is described as follows: Antibacterial activity against Bacillus cereus ATCC 11778 after 20 to 22 hr by agar dilution method.
The next experiment deals with Bacillus subtilis. As to the kind of experiment: Antibacterial activity against Bacillus subtilis ATCC 6633 after 20 to 22 hr by agar dilution method.

Consider `C=C1CC(Cn2ncc(=O)[nH]c2=O)(c2ccccc2)OC1=O` (stereo unspecified), for which the MIC in the experiment on Proteus vulgaris is 5 µg/mL (≈ 16.7 µM); in experiment [1], over 100 µg/mL; in the experiment with Micrococcus, over 100 µg/mL; in experiment [2], over 100 µg/mL; against Staphylococcus aureus it was over 100 µg/mL; with Bacillus cereus, over 100 µg/mL. The compound further displayed an MIC with Bacillus subtilis of over 100 µg/mL.

As for `C=C1CC(Cn2ncc(=O)[nH]c2=O)(c2ccc(F)cc2)OC1=O` (stereo unspecified), the MIC with Proteus vulgaris was 50 µg/mL (≈ 158 µM); in experiment [1] it was over 100 µg/mL; against Micrococcus, over 100 µg/mL; in experiment [2], over 100 µg/mL; in the experiment with Staphylococcus aureus, over 100 µg/mL; against Bacillus cereus, 50 µg/mL (≈ 158 µM). This compound also returned an MIC against Bacillus subtilis of over 100 µg/mL.

Turning to `C=C1CC(Cn2ncc(=O)[nH]c2=O)(c2ccc(-c3ccccc3)cc2)OC1=O` (stereo unspecified), the minimal inhibitory concentration (MIC) against Proteus vulgaris is 25 µg/mL (≈ 66.6 µM); in experiment [1] it was over 100 µg/mL; against Micrococcus it was over 100 µg/mL; in experiment [2], over 100 µg/mL; with Staphylococcus aureus it was over 100 µg/mL; in the experiment with Bacillus cereus, 50 µg/mL (≈ 133 µM). The MIC in the experiment on Bacillus subtilis is over 100 µg/mL.

Take `C=C1CC(Cn2nc(C)c(=O)[nH]c2=O)(c2ccccc2)OC1=O` (stereo unspecified): the MIC (against Proteus vulgaris; in experiment [1]; in the experiment with Micrococcus; in experiment [2]; with Staphylococcus aureus; against Bacillus cereus) was over 100 µg/mL throughout. In the experiment on Bacillus subtilis, this compound displayed an MIC of over 100 µg/mL.

As to `C=C1CC(Cn2nc(C)c(=O)[nH]c2=O)(c2ccc(F)cc2)OC1=O` (stereo unspecified), the MIC was over 100 µg/mL against Proteus vulgaris; over 100 µg/mL in experiment [1]; over 100 µg/mL in the experiment on Micrococcus; over 100 µg/mL in experiment [2]; over 100 µg/mL with Staphylococcus aureus; 50 µg/mL (≈ 151 µM) in the experiment on Bacillus cereus. In addition, the minimum inhibitory concentration (MIC) in the experiment with Bacillus subtilis was over 100 µg/mL.

As for `C=C1CC(Cn2nc(C)c(=O)[nH]c2=O)(c2ccc(-c3ccccc3)cc2)OC1=O` (stereo unspecified), the MIC in the experiment on Proteus vulgaris is over 100 µg/mL; in experiment [1] it was 50 µg/mL (≈ 128 µM); in the experiment with Micrococcus, over 100 µg/mL; in experiment [2], 25 µg/mL (≈ 64.2 µM); in the experiment with Staphylococcus aureus, over 100 µg/mL; in the experiment on Bacillus cereus it was over 100 µg/mL. For the same compound, in the experiment on Bacillus subtilis, it took 25 µg/mL (≈ 64.2 µM) to inhibit growth (MIC).

As to `C=C1CC(Cn2ncc(=O)n(CC3(c4ccccc4)CC(=C)C(=O)O3)c2=O)(c2ccccc2)OC1=O` (stereo unspecified), the MIC (in the experiment on Proteus vulgaris; in experiment [1]; in the experiment with Micrococcus; in experiment [2]; against Staphylococcus aureus; in the experiment with Bacillus cereus) was over 100 µg/mL each time. The minimum inhibitory concentration (MIC) in the experiment with Bacillus subtilis is over 100 µg/mL.

Turning to `C=C1CC(Cn2ncc(=O)n(CC3(c4ccc(F)cc4)CC(=C)C(=O)O3)c2=O)(c2ccc(F)cc2)OC1=O` (stereo unspecified), the MIC is over 100 µg/mL with Proteus vulgaris; over 100 µg/mL in experiment [1]; over 100 µg/mL against Micrococcus; over 100 µg/mL in experiment [2]; over 100 µg/mL in the experiment on Staphylococcus aureus; 10 µg/mL (≈ 19.2 µM) against Bacillus cereus. The MIC in the experiment with Bacillus subtilis is over 100 µg/mL.

Turning to `C=C1CC(Cn2ncc(=O)n(CC3(c4ccc(-c5ccccc5)cc4)CC(=C)C(=O)O3)c2=O)(c2ccc(-c3ccccc3)cc2)OC1=O` (stereo unspecified), the MIC against Proteus vulgaris stood at 25 µg/mL (≈ 39.2 µM); in experiment [1], 25 µg/mL (≈ 39.2 µM); against Micrococcus, 50 µg/mL (≈ 78.4 µM); in experiment [2] it was 10 µg/mL (≈ 15.7 µM); against Staphylococcus aureus, 50 µg/mL (≈ 78.4 µM); in the experiment on Bacillus cereus, 25 µg/mL (≈ 39.2 µM). In the experiment with Bacillus subtilis, this compound registered an MIC of 10 µg/mL (≈ 15.7 µM).

`C=C1CC(Cn2nc(C)c(=O)n(CC3(c4ccccc4)CC(=C)C(=O)O3)c2=O)(c2ccccc2)OC1=O` (stereo unspecified): the MIC (with Proteus vulgaris; in experiment [1]; in the experiment with Micrococcus; in experiment [2]; in the experiment on Staphylococcus aureus; in the experiment with Bacillus cereus) was over 100 µg/mL in each case. The MIC against Bacillus subtilis is over 100 µg/mL.

Regarding `C=C1CC(Cn2nc(C)c(=O)n(CC3(c4ccc(F)cc4)CC(=C)C(=O)O3)c2=O)(c2ccc(F)cc2)OC1=O` (stereo unspecified), the MIC is over 100 µg/mL against Proteus vulgaris; over 100 µg/mL in experiment [1]; 25 µg/mL (≈ 46.7 µM) with Micrococcus; over 100 µg/mL in experiment [2]; over 100 µg/mL against Staphylococcus aureus; 25 µg/mL (≈ 46.7 µM) in the experiment on Bacillus cereus. The same compound came in with an MIC in the experiment on Bacillus subtilis of over 100 µg/mL.

With `C=C1CC(Cn2nc(C)c(=O)n(CC3(c4ccc(-c5ccccc5)cc4)CC(=C)C(=O)O3)c2=O)(c2ccc(-c3ccccc3)cc2)OC1=O` (stereo unspecified), the MIC with Proteus vulgaris is over 100 µg/mL; in experiment [1], over 100 µg/mL; against Micrococcus, over 100 µg/mL; in experiment [2] it was over 100 µg/mL; in the experiment with Staphylococcus aureus it was over 100 µg/mL; in the experiment with Bacillus cereus it was 25 µg/mL (≈ 38.4 µM). Moreover, the MIC with Bacillus subtilis was over 100 µg/mL.

As to `O=c1cn[nH]c(=O)[nH]1` [6-AZAURACIL], the MIC (in the experiment with Proteus vulgaris; in experiment [1]; in the experiment with Micrococcus; in experiment [2]; with Staphylococcus aureus; in the experiment on Bacillus cereus) was over 100 µg/mL throughout. In the experiment with Bacillus subtilis, this compound gave an MIC of over 100 µg/mL.

These data come from ChEMBL document CHEMBL3045110, “Synthesis and antibacterial evaluation of 6-azapyrimidines with -methylene--(4-substituted phenyl)--butyrolactone pharmacophores” (2011).
